Measured values taken from ChEMBL document CHEMBL3608249, “Indolylpiperidine derivatives as potent and selective α1B adrenoceptor antagonists” (Bioorg Med Chem Lett, 2015).

Assays:
[1] = biological target: T1, Alpha-1A adrenergic receptor (Rattus norvegicus, UniProt P43140); test: Displacement of [3H]prazosin from alpha1A adrenoceptor in rat submaxillary gland membrane; assay type: cell membranes
T1 sequence (P43140 whole entry): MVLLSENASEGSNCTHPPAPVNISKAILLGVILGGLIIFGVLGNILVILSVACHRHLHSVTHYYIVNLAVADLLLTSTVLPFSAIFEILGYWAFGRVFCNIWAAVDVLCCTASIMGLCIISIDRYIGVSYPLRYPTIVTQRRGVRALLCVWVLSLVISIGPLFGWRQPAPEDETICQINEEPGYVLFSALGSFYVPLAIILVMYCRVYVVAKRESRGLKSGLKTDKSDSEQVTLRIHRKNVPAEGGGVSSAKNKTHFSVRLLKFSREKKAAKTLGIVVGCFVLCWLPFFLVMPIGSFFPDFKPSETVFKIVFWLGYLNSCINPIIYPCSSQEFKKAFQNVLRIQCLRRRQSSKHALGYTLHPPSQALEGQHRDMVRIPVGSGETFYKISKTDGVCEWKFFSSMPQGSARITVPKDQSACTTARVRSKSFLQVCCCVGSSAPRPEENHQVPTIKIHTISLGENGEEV

[2] = biological target: T2, Alpha-1B adrenergic receptor (Rattus norvegicus, UniProt P15823); test: Displacement of [3H]prazosin from alpha1B adrenoceptor in rat liver membranes; assay type: cell membranes, Membrane
T2 sequence (P15823 whole entry): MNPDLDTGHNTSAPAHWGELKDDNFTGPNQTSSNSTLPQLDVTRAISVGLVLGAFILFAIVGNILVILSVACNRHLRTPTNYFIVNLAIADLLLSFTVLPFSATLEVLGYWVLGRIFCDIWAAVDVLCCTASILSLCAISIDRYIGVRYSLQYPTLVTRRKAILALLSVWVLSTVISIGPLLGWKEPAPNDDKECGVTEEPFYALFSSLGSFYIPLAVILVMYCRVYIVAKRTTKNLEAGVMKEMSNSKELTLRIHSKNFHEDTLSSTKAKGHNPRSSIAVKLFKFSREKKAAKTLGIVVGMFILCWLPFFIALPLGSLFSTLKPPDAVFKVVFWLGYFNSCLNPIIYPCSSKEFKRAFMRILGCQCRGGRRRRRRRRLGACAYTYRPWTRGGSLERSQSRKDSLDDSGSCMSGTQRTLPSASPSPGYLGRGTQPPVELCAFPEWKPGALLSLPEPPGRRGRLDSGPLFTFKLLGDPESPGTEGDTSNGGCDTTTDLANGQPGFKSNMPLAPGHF

[3] = biological target: T3, Alpha-1D adrenergic receptor (Homo sapiens, UniProt P25100); test: Binding affinity to human recombinant alpha1D adrenoceptor
T3 sequence (P25100 whole entry): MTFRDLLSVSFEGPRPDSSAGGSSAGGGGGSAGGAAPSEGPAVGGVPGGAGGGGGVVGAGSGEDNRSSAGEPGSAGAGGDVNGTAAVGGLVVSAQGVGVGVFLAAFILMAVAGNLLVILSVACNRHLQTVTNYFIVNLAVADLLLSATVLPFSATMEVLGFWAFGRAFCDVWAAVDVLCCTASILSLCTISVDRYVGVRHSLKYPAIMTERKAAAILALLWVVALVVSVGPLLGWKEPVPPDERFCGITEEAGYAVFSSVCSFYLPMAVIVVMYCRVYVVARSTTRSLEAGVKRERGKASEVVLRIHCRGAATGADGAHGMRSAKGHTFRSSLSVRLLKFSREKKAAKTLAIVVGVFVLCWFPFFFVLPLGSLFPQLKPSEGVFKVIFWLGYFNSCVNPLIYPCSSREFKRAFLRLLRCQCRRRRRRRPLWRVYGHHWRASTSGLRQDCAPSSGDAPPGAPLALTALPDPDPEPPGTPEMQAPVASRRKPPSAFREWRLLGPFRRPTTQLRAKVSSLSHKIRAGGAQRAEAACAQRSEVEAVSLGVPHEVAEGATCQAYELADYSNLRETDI

[4] = biological target: T4, Adrenergic receptor alpha-2 (Rattus norvegicus, UniProt P22086+P19328+P22909); test: Binding affinity to alpha2 adrenoceptor in rat cerebral cortex; assay type: tissue-based
T4 sequence (P22086 whole entry): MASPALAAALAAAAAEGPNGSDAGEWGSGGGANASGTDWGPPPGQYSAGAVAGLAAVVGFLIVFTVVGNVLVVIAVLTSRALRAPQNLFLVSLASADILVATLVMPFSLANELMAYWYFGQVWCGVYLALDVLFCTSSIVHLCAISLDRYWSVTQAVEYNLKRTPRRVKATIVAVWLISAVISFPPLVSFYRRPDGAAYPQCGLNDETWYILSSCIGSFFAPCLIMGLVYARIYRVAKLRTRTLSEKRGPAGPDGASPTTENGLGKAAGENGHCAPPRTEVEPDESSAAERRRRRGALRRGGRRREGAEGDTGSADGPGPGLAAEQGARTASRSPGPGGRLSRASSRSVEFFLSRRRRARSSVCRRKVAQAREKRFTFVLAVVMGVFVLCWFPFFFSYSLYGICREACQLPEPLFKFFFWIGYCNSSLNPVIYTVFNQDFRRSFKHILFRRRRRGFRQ
T4 sequence (P19328 whole entry): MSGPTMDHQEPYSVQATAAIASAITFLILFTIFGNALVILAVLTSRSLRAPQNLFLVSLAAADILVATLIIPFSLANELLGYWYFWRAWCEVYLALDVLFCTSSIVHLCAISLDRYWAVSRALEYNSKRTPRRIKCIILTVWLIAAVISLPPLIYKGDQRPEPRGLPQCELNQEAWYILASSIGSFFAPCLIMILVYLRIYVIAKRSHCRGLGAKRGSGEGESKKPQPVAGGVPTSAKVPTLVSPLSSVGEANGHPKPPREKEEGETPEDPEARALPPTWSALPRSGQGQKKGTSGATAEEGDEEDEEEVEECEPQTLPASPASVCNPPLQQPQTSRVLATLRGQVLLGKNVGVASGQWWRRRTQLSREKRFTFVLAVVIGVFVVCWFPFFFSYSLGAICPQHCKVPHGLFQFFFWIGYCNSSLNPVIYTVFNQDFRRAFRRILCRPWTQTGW
T4 sequence (P22909 whole entry): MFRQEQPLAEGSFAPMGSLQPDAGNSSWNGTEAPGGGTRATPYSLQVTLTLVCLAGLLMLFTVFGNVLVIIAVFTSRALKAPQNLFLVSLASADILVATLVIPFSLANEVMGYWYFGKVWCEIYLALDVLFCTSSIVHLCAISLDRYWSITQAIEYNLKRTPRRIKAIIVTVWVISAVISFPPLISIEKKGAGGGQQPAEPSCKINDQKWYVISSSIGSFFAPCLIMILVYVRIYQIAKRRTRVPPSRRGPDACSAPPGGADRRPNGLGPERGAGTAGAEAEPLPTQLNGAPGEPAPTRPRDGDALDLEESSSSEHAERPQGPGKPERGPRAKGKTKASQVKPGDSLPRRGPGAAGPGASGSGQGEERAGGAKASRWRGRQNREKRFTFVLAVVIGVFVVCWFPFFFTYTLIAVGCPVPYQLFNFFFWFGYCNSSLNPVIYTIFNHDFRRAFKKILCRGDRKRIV

Adrenergic receptor beta = Adrenergic receptor beta (Rattus norvegicus, UniProt P18090+P10608+P26255); test: Binding affinity to beta adrenoceptor in rat brain; assay type: tissue-based
[5] = Selectivity ratio of Ki for human recombinant alpha1D adrenoceptor to Ki for alpha1B adrenoceptor in rat liver membranes; assay type: cell membranes
Rattus norvegicus [6] = species on record: Rattus norvegicus; test: Selectivity ratio of Ki for alpha2 adrenoceptor in rat cerebral cortex to Ki for alpha1B adrenoceptor in rat liver membranes; assay type: cell membranes
Rattus norvegicus [7] = species on record: Rattus norvegicus; test: Selectivity ratio of Ki for beta adrenoceptor in rat brain to Ki for alpha1B adrenoceptor in rat liver membranes; assay type: cell membranes
[8] = biological target: T5, Alpha-1B adrenergic receptor (Homo sapiens, UniProt P35368); test: Antagonist activity at human alpha1B adrenoceptor assessed as inhibition of norepinephrine-induced increase of intracellular calcium level by cell based assay; assay type: functional
T5 sequence (P35368 whole entry): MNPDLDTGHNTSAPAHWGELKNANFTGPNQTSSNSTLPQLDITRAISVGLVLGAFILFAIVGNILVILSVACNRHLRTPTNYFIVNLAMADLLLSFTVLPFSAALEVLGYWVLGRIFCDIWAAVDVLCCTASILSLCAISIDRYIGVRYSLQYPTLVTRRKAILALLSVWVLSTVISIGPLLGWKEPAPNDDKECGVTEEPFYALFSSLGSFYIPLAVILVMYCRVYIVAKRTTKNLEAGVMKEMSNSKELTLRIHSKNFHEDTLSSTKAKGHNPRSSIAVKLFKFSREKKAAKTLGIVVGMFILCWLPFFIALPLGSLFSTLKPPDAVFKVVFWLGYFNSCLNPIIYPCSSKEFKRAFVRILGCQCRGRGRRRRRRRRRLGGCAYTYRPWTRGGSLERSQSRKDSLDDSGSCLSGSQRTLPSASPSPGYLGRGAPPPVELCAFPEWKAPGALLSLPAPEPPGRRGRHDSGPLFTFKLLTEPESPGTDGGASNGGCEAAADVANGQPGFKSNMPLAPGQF

Compound | Ki [1] [nM] | Ki [2] [nM] | other results
c1ccc2c(C3CCN(CCCC4CCCCC4)CC3)c[nH]c2c1 | 140 | 47 | 
CN(C)CCCN1CCC(c2c[nH]c3ccccc23)CC1 | 240 | 4.8 | 
c1ccc(CCCN2CCC(c3c[nH]c4ccccc34)CC2)cc1 | 16 | 13 | 
Fc1ccc2c(C3CCN(CCCN4CCc5ccccc5C4)CC3)c[nH]c2c1 |  |  | Ki [3]: 16 nM; Ki [4]: 90 nM; Ki (Adrenergic receptor beta): > 1000 nM; Ratio Ki [5]: 40; Ratio Ki (Rattus norvegicus [6]): 40; Ratio Ki (Rattus norvegicus [7]): 40; IC50 [8]: 560 nM
c1ccc2c(C3CCNCC3)c[nH]c2c1 | 3100 | 440 | 
c1ccc2c(C3CCN(CCCn4cccc4)CC3)c[nH]c2c1 | 86 | 11 | 
